Assay results: patent US20250230193A1, “CYCLIC COMPOUND HAVING SELECTIVE KRAS INHIBITORY EFFECT ON HRAS AND NRAS” (CHUGAI SEIYAKU KABUSHIKI KAISHA, priority 2022, published 2025)
Where a SMILES comes first, the peptide text is derived from it. Bridges are numbered along the chain shown (N, C = ends). [ ]: non-standard residue; d: D form. The star is where a group is joined. hPhe(3-Cl-4-CF3) = N[C@@H](CCc1ccc(C(F)(F)F)c(Cl)c1)C(=O)O; NPrPhe(4-CF3) = CCCN[C@@H](Cc1ccc(C(F)(F)F)cc1)C(=O)O; NMeGly(cPent) = CN[C@H](C(=O)O)C1CCCC1; Pro(4,4-F2) = O=C(O)[C@@H]1CC(F)(F)CN1; Aze(3S-Me) = C[C@H]1CN[C@@H]1C(=O)O; Hyp = O=C(O)[C@@H]1C[C@@H](O)CN1; NMeD = CN[C@@H](CC(=O)O)C(=O)O; NMeL = CN[C@@H](CC(C)C)C(=O)O; Morpholide = C1CN(*)CCO1; NMeA = CN[C@@H](C)C(=O)O; Ac5c = NC1(C(=O)O)CCCC1; Aze = O=C(O)[C@@H]1CCN1; Sar = CNCC(=O)O

Legend:
[1] = biological target: GDP-bound NRAS wild-type protein (Homo sapiens, UniProt P01111); assay: Binding to NRAS by surface plasmon resonance (SPR), Single Cycle Kinetics; conditions: SPR; for NRAS/KRAS (ratio of KD value with respect to NRAS to KD value with respect to KRAS): GDP-bound NRAS wild-type vs GDP-bound KRAS wild-type
[2] = biological target: GDP-bound HRAS wild-type protein (Homo sapiens, UniProt P01112); assay: Binding to HRAS by surface plasmon resonance (SPR), Single Cycle Kinetics; conditions: SPR; for HRAS/KRAS (ratio of KD value with respect to HRAS to KD value with respect to KRAS): GDP-bound HRAS wild-type vs GDP-bound KRAS wild-type
Sequence of GDP-bound HRAS wild-type protein (P01112 whole entry): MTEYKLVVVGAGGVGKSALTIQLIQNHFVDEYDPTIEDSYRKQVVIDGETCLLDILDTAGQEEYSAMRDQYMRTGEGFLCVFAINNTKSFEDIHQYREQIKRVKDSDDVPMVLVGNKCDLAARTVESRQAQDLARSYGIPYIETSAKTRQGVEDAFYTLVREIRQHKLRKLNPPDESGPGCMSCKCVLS

Sequence of GDP-bound NRAS wild-type protein (P01111 whole entry): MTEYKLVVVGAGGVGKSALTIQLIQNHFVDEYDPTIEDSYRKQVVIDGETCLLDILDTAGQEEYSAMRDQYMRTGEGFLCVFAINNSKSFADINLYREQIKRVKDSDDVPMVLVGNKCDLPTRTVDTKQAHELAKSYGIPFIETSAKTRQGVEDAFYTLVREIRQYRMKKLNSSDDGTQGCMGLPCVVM

SMILES: CCCN1C(=O)[C@@H]2CCN2C(=O)[C@H](C)N(C)C(=O)[C@H]([C@@H](C)CC)NC(=O)[C@H](CC(C)C)N(C)C(=O)C[C@@H](C(=O)N2CCOCC2)NC(=O)[C@H](C2CCCC2)N(C)C(=O)C2(CCCC2)NC(=O)[C@@H]2CC(F)(F)CN2C(=O)[C@H](CCc2ccc(C(F)(F)F)c(Cl)c2)NC(=O)CN(C)C(=O)[C@@H]1Cc1ccc(C(F)(F)F)cc1 [PP0345] ([NMeL]I[NMeA][Aze][NPrPhe(4-CF3)][Sar][hPhe(3-Cl-4-CF3)][Pro(4,4-F2)][Ac5c][NMeGly(cPent)]D-Morpholide; lactam N-11)
- NRAS/KRAS (ratio of KD for GDP-bound NRAS wild-type to KD for KRAS) [1]: C (A compound having a KD ratio of 0.1 or more and less than 3 is denoted as C)
- HRAS/KRAS (ratio of KD for GDP-bound HRAS wild-type to KD for KRAS) [2]: B (a compound having 3 or more and less than 10 is denoted as B)

SMILES: CCO[C@@H]1C[C@H]2C(=O)NC3(CCC3)C(=O)N(C)[C@@H](C3CCCC3)C(=O)N(C)[C@H](C(=O)N3CCOCC3)CC(=O)N(C)[C@@H](Cc3ccc(C)cc3)C(=O)N[C@@H]([C@@H](C)CC)C(=O)N(C)CC(=O)N(C)[C@H]3CCCCCN(C3=O)[C@@H](Cc3ccc(C(F)(F)F)cc3)C(=O)N(C)CC(=O)N[C@@H](CCc3cc(F)c(C(F)(F)F)c(F)c3)C(=O)N2C1 [PP0933]
- NRAS/KRAS (ratio of KD value with respect to NRAS to KD value with respect to KRAS) ([1]; KD ratio): A (a compound having 10 or more and less than 20 is denoted as A)
- HRAS/KRAS (ratio of KD value with respect to HRAS to KD value with respect to KRAS) ([2]; KD ratio): B (a compound having 3 or more and less than 10 is denoted as B)

SMILES: CCO[C@@H]1C[C@H]2C(=O)NC3(CCC3)C(=O)N(C)[C@@H](C3CCCC3)C(=O)N(C)[C@H](C(=O)N3CCOCC3)CC(=O)N(C)[C@@H](COCC(F)(F)F)C(=O)N[C@@H]([C@@H](C)CC)C(=O)N(C)CC(=O)N(C)[C@H]3CCCCCN(C3=O)[C@@H](Cc3ccc(C(F)(F)F)cc3)C(=O)N(C)CC(=O)N[C@@H](CCc3cc(F)c(C(F)(F)F)c(F)c3)C(=O)N2C1 [PP0853]
- NRAS/KRAS (ratio of KD value with respect to NRAS to KD value with respect to KRAS) ([1]; KD ratio): B (a compound having 3 or more and less than 10 is denoted as B)
- HRAS/KRAS (ratio of KD value with respect to HRAS to KD value with respect to KRAS) ([2]; KD ratio): B (a compound having 3 or more and less than 10 is denoted as B)

SMILES: CCC[C@H]1C(=O)N[C@@H]([C@@H](C)CC)C(=O)N(C)CC(=O)N(C)[C@H]2C/C=C\CCN(C2=O)[C@@H](CC2CCC(F)(F)CC2)C(=O)N(C)CC(=O)N[C@@H](CCc2ccc(C(F)(F)F)c(Cl)c2)C(=O)N2C[C@H](OCC)C[C@H]2C(=O)NC2(CC(C)(C)C2)C(=O)N(C)[C@@H](C(CC)CC)C(=O)N(C)[C@H](C(=O)N(C)C)CC(=O)N1C [PP2498]
- NRAS/KRAS (ratio of KD value with respect to NRAS to KD value with respect to KRAS) [1]: A (a compound having 10 or more and less than 20 is denoted as A)
- HRAS/KRAS (ratio of KD value with respect to HRAS to KD value with respect to KRAS) [2]: A (a compound having 10 or more and less than 20 is denoted as A)

SMILES: CC[C@H](C)[C@@H]1NC(=O)[C@H](C2CC2)N(C)C(=O)C[C@@H](C(=O)N(C)CC)N(C)C(=O)[C@H](C2CCCC2)N(C)C(=O)C2(CCC2)NC(=O)[C@@H]2C[C@H](C)CN2C(=O)[C@H](CCc2ccc(C(F)(F)F)c(OC)c2)NC(=O)CN(C)C(=O)[C@H](Cc2ccc(C(F)(F)F)cc2)N2CC/C=C\C[C@@H](C2=O)N(C)C(=O)CN(C)C1=O [PP2069]
- NRAS/KRAS (ratio of KD value with respect to NRAS to KD value with respect to KRAS) [1]: AA (a compound having 20 or more is denoted as AA)
- HRAS/KRAS (ratio of KD value with respect to HRAS to KD value with respect to KRAS) [2]: A (a compound having 10 or more and less than 20 is denoted as A)

SMILES: CCCN1C(=O)CN(C)C(=O)[C@@H]2[C@@H](C)CN2C(=O)[C@H]([C@@H](C)CC)NC(=O)[C@H](CC(C)C)N(C)C(=O)C[C@@H](C(=O)N2CCOCC2)N(C)C(=O)[C@H](C2CCCC2)N(C)C(=O)C2(CCCC2)NC(=O)[C@@H]2CCCN2C(=O)[C@H](CCc2ccc(C(F)(F)F)c(Cl)c2)NC(=O)CN(C)C(=O)[C@@H]1Cc1ccc(C(F)(F)F)cc1 [PP0258] ([NMeL]I[Aze(3S-Me)][Sar][NPrPhe(4-CF3)][Sar][hPhe(3-Cl-4-CF3)]P[Ac5c][NMeGly(cPent)][NMeD]-Morpholide; lactam N-11)
- NRAS/KRAS (ratio of KD for GDP-bound NRAS wild-type to KD for KRAS) [1]: B (a compound having 3 or more and less than 10 is denoted as B)
- HRAS/KRAS (ratio of KD for GDP-bound HRAS wild-type to KD for KRAS) [2]: C (A compound having a KD ratio of 0.1 or more and less than 3 is denoted as C)

SMILES: CCCN1C(=O)CN(C)C(=O)[C@@H]2CCN2C(=O)[C@H]([C@@H](C)CC)NC(=O)[C@H](CC(C)C)N(C)C(=O)C[C@@H](C(=O)N2CCOCC2)N(C)C(=O)[C@H](C2CCCC2)N(C)C(=O)C2(CCCC2)NC(=O)[C@@H]2C[C@@H](OC)CN2C(=O)[C@H](CCc2ccc(C(F)(F)F)c(Cl)c2)NC(=O)CN(C)C(=O)[C@@H]1Cc1ccc(C(F)(F)F)cc1 [PP0309] ([NMeL]I[Aze][Sar][NPrPhe(4-CF3)][Sar][hPhe(3-Cl-4-CF3)][Hyp](Me)[Ac5c][NMeGly(cPent)][NMeD]-Morpholide; lactam N-11)
- NRAS/KRAS (ratio of KD for GDP-bound NRAS wild-type to KD for KRAS) [1]: B (a compound having 3 or more and less than 10 is denoted as B)
- HRAS/KRAS (ratio of KD for GDP-bound HRAS wild-type to KD for KRAS) [2]: B (a compound having 3 or more and less than 10 is denoted as B)
